Source: patent publication US20250092039A1, “GLUTARIMIDE-CONTAINING PAN-KRAS-MUTANT DEGRADER COMPOUNDS AND USES THEREOF” (Tiger Biotherapeutics Inc., priority 2022, published 2025)
Like-named read-outs stand apart in the source and are kept apart here.

Tests used:
KRAS-G12V/RAF1 = KRAS-G12V/RAF1 (Homo sapiens (Human), UniProt P01116, G12V); test: KRAS/RAF1 binding inhibition assay (AlphaScreen)
In short: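 Binding of GppNHp-loaded KRAS G12V to the RAF1 RBD was measured by AlphaScreen with test compound present in 2% DMSO (final), 60 min incubation at 4° C. Signals were converted to % inhibition versus DMSO, and IC50 was obtained by variable-slope nonlinear regression.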

KRAS G12V = KRAS G12V (Homo sapiens (Human), UniProt P01116, G12V); test: KRAS G12V degradation in SW620 cells (Western blot, DC50); format: cell-based; conditions: 24 hours
KRAS G12V, sequence (P01116-2 other isoform, or with tags, fused parts or gaps G12V): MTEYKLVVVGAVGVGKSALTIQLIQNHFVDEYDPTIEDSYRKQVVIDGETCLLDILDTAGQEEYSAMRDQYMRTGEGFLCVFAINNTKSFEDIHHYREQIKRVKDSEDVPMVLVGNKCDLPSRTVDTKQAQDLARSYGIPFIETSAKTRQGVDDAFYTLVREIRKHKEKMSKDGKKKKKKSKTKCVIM
In short: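 SW620 cells (homozygous KRAS G12V) were treated with compound for 24 hours at 37° C. KRAS in lysates was measured by Western blot with fluorescent secondary antibodies and expressed relative to DMSO vehicle (100%). DC50 came from a four-parameter variable-slope dose-response fit.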

SW620 cells = test: 3D cell growth inhibition of SW620 cells carrying endogenous KRAS G12V mutation (CellTiter-Glo 3D, GI50); format: cell-based; conditions: SW620 cells, 6 days, read-out: SW620 3D cell growth GI50
In short: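 SW620 cells (endogenous KRAS G12V) grown in 3D were dosed next day with compound from DMSO stocks at various concentrations, then incubated 6 days at 37° C.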

KRAS-G12V/RAF1, sequence (P01116-2 other isoform, or with tags, fused parts or gaps G12V): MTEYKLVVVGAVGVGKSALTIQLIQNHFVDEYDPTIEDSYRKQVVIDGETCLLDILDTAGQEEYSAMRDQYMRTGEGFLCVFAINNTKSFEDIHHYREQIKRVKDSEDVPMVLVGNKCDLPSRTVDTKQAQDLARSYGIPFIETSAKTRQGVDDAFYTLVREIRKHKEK

| IC50 (KRAS-G12V/RAF1) [nM] | DC50 (KRAS G12V) [nM] | GI50 (SW620 cells; Homo sapiens, SW-620, 144 h) [nM] | GI50 (SW620 cells) [nM] | Compound |
| --- | --- | --- | --- | --- |
| < 20 | < 1 | < 10 |  | CCc1c(F)ccc2cc(O)cc(-c3ncc4c(N5CCC[C@@](C)(O)C5)nc(OCC5(CN6CC(N7CC8(CCN(c9ccc%10c(c9)CN(C9CCC(=O)NC9=O)C%10=O)CC8)C7)C6)CC5)nc4c3F)c12 (stereo partly drawn) [Compound 144, 3-(5-(2-(1-((1-(((7-(8-ethyl-7-fluoro-3-hydroxynaphthalen-1-yl)-8-fluoro-4-((R)-3-hydroxy-3-methylpiperidin-1-yl)pyrido[4,3-d]pyrimidin-2-yl)oxy)methyl)cyclopropyl)methyl)azetidin-3-yl)-2,7-diazaspiro[3.5]nonan-7-yl)-1-oxoisoindolin-2-yl)piperidine-2,6-dione] |
| 20 to 200 | 1 to 10 | < 10 |  | CCc1c(F)ccc2cc(O)cc(-c3ncc4c(N5CCC[C@@](C)(O)C5)nc(OCC5(CN6CC(N7CCN(c8ccc9c(c8)CN([C@H]8CCC(=O)NC8=O)C9=O)CC7)C6)CC5)nc4c3F)c12 [Compound 130, (S)-3-(5-(4-(1-((1-(((7-(8-ethyl-7-fluoro-3-hydroxynaphthalen-1-yl)-8-fluoro-4-((R)-3-hydroxy-3-methylpiperidin-1-yl)pyrido[4,3-d]pyrimidin-2-yl)oxy)methyl)cyclopropyl)methyl)azetidin-3-yl)piperazin-1-yl)-1-oxoisoindolin-2-yl)piperidine-2,6-dione] |
| 20 to 200 | 1 to 10 | < 10 |  | C[C@@]1(O)CCCN(c2nc(OCC3(CN4CCC5(CC4)CC(N4CCN(c6ccc7c(c6)CN([C@H]6CCC(=O)NC6=O)C7=O)CC4)C5)CC3)nc3c(F)c(-c4cc(O)cc5ccc(F)c(F)c45)ncc23)C1 [Compound 170, (S)-3-(5-(4-(7-((1-(((7-(7,8-difluoro-3-hydroxynaphthalen-1-yl)-8-fluoro-4-((R)-3-hydroxy-3-methylpiperidin-1-yl)pyrido[4,3-d]pyrimidin-2-yl)oxy)methyl)cyclopropyl)methyl)-7-azaspiro[3.5]nonan-2-yl)piperazin-1-yl)-1-oxoisoindolin-2-yl)piperidine-2,6-dione] |
| 20 to 200 | < 1 | < 10 |  | CCc1c(F)ccc2cc(O)cc(-c3ncc4c(N5CCC[C@@](C)(O)C5)nc(OCC5(CN6CCC7(CC6)CC(OC6CCN(c8ccc9c(c8)CN(C8CCC(=O)NC8=O)C9=O)CC6)C7)CC5)nc4c3F)c12 (stereo partly drawn) [Compound 176, 3-(5-(4-((7-((1-(((7-(8-ethyl-7-fluoro-3-hydroxynaphthalen-1-yl)-8-fluoro-4-((R)-3-hydroxy-3-methylpiperidin-1-yl)pyrido[4,3-d]pyrimidin-2-yl)oxy)methyl)cyclopropyl)methyl)-7-azaspiro[3.5]nonan-2-yl)oxy)piperidin-1-yl)-1-oxoisoindolin-2-yl)piperidine-2,6-dione] |
| 20 to 200 | 1 to 10 | < 10 |  | CCc1c(F)ccc2cc(O)cc(-c3ncc4c(N5CCC[C@@](C)(O)C5)nc(OCC5(CN6CCC7(CC6)CCN(C6CN(c8ccc9c(c8)CN(C8CCC(=O)NC8=O)C9=O)C6)CC7)CC5)nc4c3F)c12 (stereo partly drawn) [Compound 164, 3-(5-(3-(9-((1-(((7-(8-ethyl-7-fluoro-3-hydroxynaphthalen-1-yl)-8-fluoro-4-((R)-3-hydroxy-3-methylpiperidin-1-yl)pyrido[4,3-d]pyrimidin-2-yl)oxy)methyl)cyclopropyl)methyl)-3,9-diazaspiro[5.5]undecan-3-yl)azetidin-1-yl)-1-oxoisoindolin-2-yl)piperidine-2,6-dione] |
| 20 to 200 | < 1 | < 10 |  | CCc1c(F)ccc2cc(O)cc(-c3ncc4c(N5CCC[C@@](C)(O)C5)nc(OCC5(CN6CCC7(CC6)CC(C)(CN6CCN(c8ccc9c(c8)CN([C@H]8CCC(=O)NC8=O)C9=O)CC6)C7)CC5)nc4c3F)c12 [Compound 150, (3S)-3-[5-[4-[[7-[[1-[[7-(8-ethyl-7-fluoro-3-hydroxy-1-naphthyl)-8-fluoro-4-[(3R)-3-hydroxy-3-methyl-1-piperidyl]pyrido[4,3-d]pyrimidin-2-yl]oxymethyl]cyclopropyl]methyl]-2-methyl-7-azaspiro[3.5]nonan-2-yl]methyl]piperazin-1-yl]-1-oxo-isoindolin-2-yl]piperidine-2,6-dione] |
| 20 to 200 | > 100 | 10 to 100 |  | CCc1c(F)ccc2cc(O)cc(-c3ncc4c(N5CCC[C@@](C)(O)C5)nc(OCC5(CN6CC(CN7CCC(N8CCN(c9ccc%10c(c9)CN([C@H]9CCC(=O)NC9=O)C%10=O)CC8)CC7)C6)CC5)nc4c3F)c12 [Compound 149, (S)-3-(5-(4-(1-((1-((1-(((7-(8-ethyl-7-fluoro-3-hydroxynaphthalen-1-yl)-8-fluoro-4-((R)-3-hydroxy-3-methylpiperidin-1-yl)pyrido[4,3-d]pyrimidin-2-yl)oxy)methyl)cyclopropyl)methyl)azetidin-3-yl)methyl)piperidin-4-yl)piperazin-1-yl)-1-oxoisoindolin-2-yl)piperidine-2,6-dione] |
| 20 to 200 | 1 to 10 |  | > 100 | CCc1cccc2cc(O)cc(-c3ncc4c(N5CCC[C@@](C)(O)C5)nc(OCC5(CN6CC7(CCC(N8CCN(c9ccc%10c(c9)CN([C@H]9CCC(=O)NC9=O)C%10=O)CC8)CC7)C6)CC5)nc4c3F)c12 [Compound 142, (S)-3-(5-(4-(2-((1-(((7-(8-ethyl-3-hydroxynaphthalen-1-yl)-8-fluoro-4-((R)-3-hydroxy-3-methylpiperidin-1-yl)pyrido[4,3-d]pyrimidin-2-yl)oxy)methyl)cyclopropyl)methyl)-2-azaspiro[3.5]nonan-7-yl)piperazin-1-yl)-1-oxoisoindolin-2-yl)piperidine-2,6-dione] |
| < 20 | 1 to 10 | < 10 |  | CCc1c(F)ccc2cc(O)cc(-c3ncc4c(N5CCC[C@@](C)(O)C5)nc(OCC5(CN6CC7(CCN(C8CN(c9ccc%10c(c9)CN(C9CCC(=O)NC9=O)C%10=O)C8)CC7)C6)CC5)nc4c3F)c12 (stereo partly drawn) [Compound 172, 3-(5-(3-(2-((1-(((7-(8-ethyl-7-fluoro-3-hydroxynaphthalen-1-yl)-8-fluoro-4-((R)-3-hydroxy-3-methylpiperidin-1-yl)pyrido[4,3-d]pyrimidin-2-yl)oxy)methyl)cyclopropyl)methyl)-2,7-diazaspiro[3.5]nonan-7-yl)azetidin-1-yl)-1-oxoisoindolin-2-yl)piperidine-2,6-dione] |
| > 200 | > 100 | > 100 |  | Cc1nc(N)cc(-c2ncc3c(N4CCC[C@@](C)(O)C4)nc(OCC4(CN5CCC6(CC5)CC(CN5CCN(c7ccc8c(c7)CN([C@H]7CCC(=O)NC7=O)C8=O)CC5)C6)CC4)nc3c2F)c1C(F)(F)F [Compound 26, (S)-3-(5-(4-((7-((1-(((7-(6-amino-2-methyl-3-(trifluoromethyl)pyridin-4-yl)-8-fluoro-4-((R)-3-hydroxy-3-methylpiperidin-1-yl)pyrido[4,3-d]pyrimidin-2-yl)oxy)methyl)cyclopropyl)methyl)-7-azaspiro[3.5]nonan-2-yl)methyl)piperazin-1-yl)-1-oxoisoindolin-2-yl)piperidine-2,6-dione] |
